Experimental data as given in patent US20230322735A1, “AZETIDINYL TRYPTAMINES AND METHODS OF TREATING PSYCHIATRIC DISORDERS” (priority 2020, published 2023).
Structures can show the parent of a compound that is named as a salt. Where two headings read alike, the source gives them in different places.

Columns and labels:
5-HT1A receptor = target: T1, 5-HT1A receptor (Homo sapiens, UniProt P08908); assay: FLIPR Ca2+ flux agonist assay at 5-HT1A (CHO cells); type: cell-based; details: for fold more potent at 5-HT1A than dimethyl (and methylethyl) counterparts: Ca2+ flux EC50 compared with DMT/MET, psilocin/4-HO-MET, 5-MeO-DMT; for 5-HT1A % Act @ Max Dose: Ca2+ flux, agonist mode, CHO cells
T1 construct: host or cells: CHO cells
T1 sequence (P08908 1-422): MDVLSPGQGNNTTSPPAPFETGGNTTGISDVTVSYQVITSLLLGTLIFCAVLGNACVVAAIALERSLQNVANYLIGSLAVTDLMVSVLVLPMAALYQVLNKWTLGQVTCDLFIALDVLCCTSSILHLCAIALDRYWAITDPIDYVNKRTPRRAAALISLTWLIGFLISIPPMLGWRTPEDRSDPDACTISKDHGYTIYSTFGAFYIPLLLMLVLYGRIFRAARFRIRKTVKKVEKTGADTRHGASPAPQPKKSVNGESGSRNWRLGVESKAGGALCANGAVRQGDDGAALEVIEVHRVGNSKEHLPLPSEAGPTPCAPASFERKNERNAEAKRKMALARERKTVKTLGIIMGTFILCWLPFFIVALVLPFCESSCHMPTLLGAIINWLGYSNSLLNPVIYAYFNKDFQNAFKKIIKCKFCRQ
Procedure: (§1) A solution of 250 mM probenecid in 1 mL FLIPR assay buffer was prepared fresh. This was combined with a fluorescent dye (Fluo-4 Direct™) to make a final assay concentration of 2.5 mM. […] The fluorescent dye was then added to the assay plate along with assay buffer to a final volume of 40 μL. The cell plate was incubated for 50 min at 37° C. and 5% CO2 and placed into the FLIPR Tetra along with the compound plate. 10 μL of references and compounds were then transferred from the compound plate into the cell plate and the fluorescent signal was read.

5-HT2B receptor = target: T2, 5-HT2B receptor (Homo sapiens, UniProt P41595); assay: FLIPR Ca2+ flux agonist assay at 5-HT2B (HEK293); type: cell-based; details: for 5-HT2B % Act @ Max Dose: Ca2+ flux, agonist mode, HEK293
T2 construct: host or cells: HEK293
T2 sequence (P41595 whole entry): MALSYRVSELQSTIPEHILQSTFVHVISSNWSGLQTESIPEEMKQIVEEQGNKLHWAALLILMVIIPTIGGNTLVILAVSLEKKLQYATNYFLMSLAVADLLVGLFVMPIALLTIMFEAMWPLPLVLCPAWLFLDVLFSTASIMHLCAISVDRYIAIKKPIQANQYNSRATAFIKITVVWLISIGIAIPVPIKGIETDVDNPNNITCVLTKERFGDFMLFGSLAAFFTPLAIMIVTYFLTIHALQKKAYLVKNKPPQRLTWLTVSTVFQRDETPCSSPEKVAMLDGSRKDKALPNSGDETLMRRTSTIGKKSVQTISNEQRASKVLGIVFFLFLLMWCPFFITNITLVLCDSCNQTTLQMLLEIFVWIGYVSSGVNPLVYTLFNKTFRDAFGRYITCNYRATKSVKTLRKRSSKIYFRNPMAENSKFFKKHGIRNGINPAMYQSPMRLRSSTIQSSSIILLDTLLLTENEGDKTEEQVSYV
Procedure: as §1

[1] = Stability in mouse brain homogenate; details: for half-life at 1 μM: male, CD-1, mouse, mouse brain homogenate; for % Compound Remaining (after 120 min) / t1/2: mouse brain homogenate (male CD-1), 1 μM, 37° C.
[2] = Metabolic stability in human liver microsomes (HLM); details: for half-life at 1 μM / microsomal CLint at 1 μM: both, human, pooled human liver microsomes, pH 7.4; for metabolic stability in HLM compared with dimethyl counterpart: vs DMT, psilocin, 5-MeO-DMT respectively; for t1/2: HLM, 1 μM test compound, 0.50 mg protein/mL, NADPH, 37° C., 60 min
[3] = Stability in rat brain homogenate; details: for half-life at 1 μM: male, Sprague Dawley, rat, rat brain homogenate; for % Compound Remaining (after 120 min) / t1/2: rat brain homogenate (male Sprague Dawley), 1 μM, 37° C.
5-HT2A receptor = target: T3, 5-HT2A receptor (Homo sapiens, UniProt P28223); assay: FLIPR Ca2+ flux agonist assay at 5-HT2A (HEK293); type: cell-based
T3 construct: host or cells: HEK293
T3 sequence (P28223 whole entry): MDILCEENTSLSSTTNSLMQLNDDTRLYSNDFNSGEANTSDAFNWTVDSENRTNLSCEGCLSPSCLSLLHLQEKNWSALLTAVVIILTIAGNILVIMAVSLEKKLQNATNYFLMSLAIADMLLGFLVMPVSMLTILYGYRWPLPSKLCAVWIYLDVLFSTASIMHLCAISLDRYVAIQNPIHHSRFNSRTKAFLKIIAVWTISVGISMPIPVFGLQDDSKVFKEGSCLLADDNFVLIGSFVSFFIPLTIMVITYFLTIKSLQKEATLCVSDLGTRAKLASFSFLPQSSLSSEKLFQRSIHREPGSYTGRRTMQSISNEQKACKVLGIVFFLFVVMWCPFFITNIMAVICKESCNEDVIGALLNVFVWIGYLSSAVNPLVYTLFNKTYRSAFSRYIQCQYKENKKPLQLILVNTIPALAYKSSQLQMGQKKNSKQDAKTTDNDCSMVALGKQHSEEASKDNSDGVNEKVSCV
Procedure: as §1

C57BL/6 mice = assay: Head twitch response (HTR) in mice; type: in vivo, mouse; details: SC; for maximal effect in the HTR assay: maximum over doses tested
[4] = Chemical stability of the product on storage and analysis; type: physicochemical; details: storage and handling
Procedure: Note: The product 2 is unstable and should be stored frozen, protected from light, and under inert gas. If stored properly, stability has been confirmed by qNMR for at least 1 month.
A mixture of 3-(2-(azetidin-1-yl)ethyl)-1H-indol-4-ol (2, 50 mg, 231.18 μmol, 1 eq) and pyridine (23.77 mg, 300.54 μmol, 24.26 μL, 1.3 eq) in DCM (1 mL) was cooled to 0° C. Then acetic anhydride (25.96 mg, 254.30 μmol, 23.82 μL, 1.1 eq) was added dropwise at 0° C. and the resulting mixture was stirred at 25° C. for 1 h. At this time, the solvent was removed and the residue was purified by prep-HPLC (column=Waters Xbridge BEH C18 (100*30 mm, 10 μm); mobile phase=water(NH4HCO3)-ACN, B %=5%-40%; 10 min run time) to provide 3-(2-(azetidin-1-yl)ethyl)-1H-indol-4-yl acetate (4) as a white solid (20 mg, 33% yield). ^1H NMR (400 MHz, DMSO-d6) δ 11.01 (br s, 1H), 7.22 (d, J=8.0 Hz, 1H), 7.11 (d, J=1.6 Hz, 1H), 7.02 (t, J=8.0 Hz, 1H), 6.64 (d, J=7.6 Hz, 1H), 3.09 (t, J=6.8 Hz, 4H), 2.57-2.54 (m, 4H), 2.32 (s, 3H), 1.96-1.90 (m, 2H); LCMS (RT=0.983 min, MS calc.: 258.14, [M+H]+=259.1).

[5] = Pro-drug conversion to Compound 2 after administration to an animal; type: in vivo; details: when administered to an animal, for example a human
human 5-HT2C receptor = target: T4, human 5-HT2C receptor (Homo sapiens, UniProt P28335); assay: cell-based; details: Ca2+ flux, agonist mode
T4 sequence (P28335 33-458): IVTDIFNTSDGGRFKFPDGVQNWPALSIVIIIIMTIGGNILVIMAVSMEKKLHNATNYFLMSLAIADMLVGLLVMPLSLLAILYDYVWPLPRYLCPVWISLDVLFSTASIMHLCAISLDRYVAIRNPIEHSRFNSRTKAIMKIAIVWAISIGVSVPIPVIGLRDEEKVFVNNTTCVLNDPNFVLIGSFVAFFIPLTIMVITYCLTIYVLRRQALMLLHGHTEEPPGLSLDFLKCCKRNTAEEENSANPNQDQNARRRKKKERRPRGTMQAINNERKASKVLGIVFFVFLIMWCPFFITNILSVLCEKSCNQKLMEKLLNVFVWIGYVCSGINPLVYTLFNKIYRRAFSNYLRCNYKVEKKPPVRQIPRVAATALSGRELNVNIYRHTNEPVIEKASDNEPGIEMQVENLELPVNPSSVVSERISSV

[6] = Ca2+ flux, agonist mode, HEK293
[7] = Ca2+ flux, agonist mode, HEK293, read-out: 5-HT2A EC50

Row | SMILES | EC50 (5-HT1A receptor) | 5-HT1A % Act @ Max Dose (5-HT1A receptor) | EC50 (5-HT2B receptor) | 5-HT2B % Act @ Max Dose (5-HT2B receptor) | % Compound Remaining (after 120 min) [1] | microsomal CLint at 1 μM [2] | % Compound Remaining (after 120 min) [3] | 5-HT2A % Act @ Max Dose (5-HT2A receptor; [6]) | t1/2 [1] | t1/2 [2] | t1/2 [3] | also measured
1 | c1ccc2c(CCN3CCC3)c[nH]c2c1 [Compound 1, 3-(2-(azetidin-1-yl)ethyl)-1H-indole fumarate] | 0.745 µM | 135% | 917 nM | 22.6% | 111.3% | 12.4 µL/min/mg | 91.9% | 73.2% | – | – | – | fold more potent at 5-HT1A than dimethyl (and methylethyl) counterparts (5-HT1A receptor): > 50 fold; stability in mouse brain homogenate (in words) [1]: good stability; half-life at 1 μM [1]: > 289 min; half-life at 1 μM [2]: 112 min; metabolic stability in HLM compared with dimethyl counterpart [2]: greater metabolic stability; stability in rat brain homogenate (in words) [3]: good stability; half-life at 1 μM [3]: > 289 min; EC50 (5-HT2A receptor; [7]): 90.4 nM; Average HTR Over 20-min Test (C57BL/6 mice; dose 0.1 mg/kg): 5.00; Average HTR Over 20-min Test (C57BL/6 mice; dose 1 mg/kg): 2.17; Average HTR Over 20-min Test (C57BL/6 mice; dose 10 mg/kg): 1.00
2 | COc1ccc2[nH]cc(CCN3CCC3)c2c1 [Compound 3, 3-(2-(azetidin-1-yl)ethyl)-5-methoxy-1H-indole fumarate] | 0.0211 µM | 112% | 274 nM | 35.0% | 103.1% | < 9.6 µL/min/mg | 98% | 99.3% | – | – | – | fold more potent at 5-HT1A than dimethyl (and methylethyl) counterparts (5-HT1A receptor): > 10 fold; stability in mouse brain homogenate (in words) [1]: good stability; half-life at 1 μM [1]: > 289 min; half-life at 1 μM [2]: > 145 min; metabolic stability in HLM compared with dimethyl counterpart [2]: greater metabolic stability; stability in rat brain homogenate (in words) [3]: good stability; half-life at 1 μM [3]: > 289 min; EC50 (5-HT2A receptor; [7]): 7.15 nM
3 | CC(=O)Oc1cccc2[nH]cc(CCN3CCC3)c12 [Compound 4, 3-(2-(azetidin-1-yl)ethyl)-1H-indol-4-yl acetate] | – | – | – | – | – | – | – | – | – | – | – | stability compared with Compound 2 [4]: more stable to oxidation than Compound 2; hydrolysis of the ester to Compound 2 as active metabolite [5]: rapidly hydrolyzed
4 | CCN(C)CCc1c[nH]c2cccc(O)c12 [Compound 4-HO-MET, 3-(2-(ethyl(methyl)amino)ethyl)-1H-indol-4-ol, reference compound] | 14.7 µM | 73.0% | > 10000 nM | 1.09% | – | – | – | 103% | – | – | – | EC50 (5-HT2A receptor): 15.1 nM; Average HTR Over 20-min Test (C57BL/6 mice; dose 0.1 mg/kg): 9.50; Average HTR Over 20-min Test (C57BL/6 mice; dose 1 mg/kg): 20.83; Average HTR Over 20-min Test (C57BL/6 mice; dose 10 mg/kg): 11.33; maximal effect in the HTR assay (C57BL/6 mice): 20.8 head twitches/20 min
5 | O=P(O)(O)Oc1cccc2[nH]cc(CCN3CCC3)c12 [Compound 5, 3-(2-(azetidin-1-yl)ethyl)-1H-indol-4-yl dihydrogen phosphate] | – | – | – | – | – | – | – | – | – | – | – | stability compared with Compound 2 [4]: more stable than Compound 2; hydrolysis of the ester to Compound 2 as active metabolite [5]: rapidly hydrolyzed
6 | COc1ccc2[nH]cc(CCN(C)C)c2c1 [Compound 5-MeO-DMT, reference compound] | – | 100% | – | 17.6% | 91.2% | 102 µL/min/mg | 0.3% | 106% | >289.1 min | 13.6 min | 14.4 min | –
7 | CN(C)CCc1c[nH]c2ccccc12 [DMT, N,N-dimethyltryptamine, reference compound] | – | 68.1% | – | 10.4% | 0.0% | 199 µL/min/mg | 0.0% | 93.4% | 6.4 min | 7.0 min | 5.1 min | –
8 | COc1cc(CC(C)N)c(OC)cc1I (stereo not shown) [DOI, 4-iodo-2,5-dimethoxyamphetamine, reference compound] | – | – | – | – | – | – | – | – | – | – | – | maximal effect in the HTR assay (C57BL/6 mice): 35.6 head twitches/20 min
9 | CCN(C)CCc1c[nH]c2ccccc12 [MET, N-ethyl-2-(1H-indol-3-yl)-N-methylethan-1-amine, reference compound] | 89.4 µM | 73.6% | > 100000 nM | 22.5% | – | – | – | 36.2% | – | – | – | 5-HT2C % Act @ Max Dose (human 5-HT2C receptor): 89.7%; EC50 (human 5-HT2C receptor): 28.3 nM; EC50 (5-HT2A receptor): 17.1 nM
10 | CN(C)CCc1c[nH]c2cccc(O)c12 [Psilocin, psilocin, reference compound] | 5.26 µM | 66.4% | – | 1.44% | 97.6% | 127 µL/min/mg | 46.1% | – | >289.1 min | 109.7 min | 114.8 min | –
